Where “and” joins values, the source holds several entries; their conditions need not be identical. Equal values may be shown once.
What was measured:
[1] = target: T1, HSA (Homo sapiens, UniProt P02768); assay: Competitive probe experiment (warfarin, ibuprofen, lidocaine); type: binding
T1 construct: HSA (≥96%) and six PFAS were all purchased from Aladdin Chemicals (Shanghai, China); purchased Aladdin Chemicals (Shanghai, China)
Description: Competitive probe experiments are commonly used to identify specific binding sites in the structure of proteins. Three probe molecules known to bind to distinct binding sites on HSA were selected: warfarin (subdomain IIA), ibuprofen (subdomain IIIA), and lidocaine (subdomain IIB). These probe molecules would compete with PFAS for the same protein sites when binding with HSA. The potential binding sites can be inferred by monitoring and comparing changes in fluorescence intensity when probe molecules are present.

[2] = target: T1, HSA; assay: 3D-EEM fluorescence spectra of HSA–PFAS; conditions: HSA 1 × 10^−6, PFAS 1.8 × 10^−5 mol·L^−1; for 3D-EEM Peak A Intensity F: HSA alone 673.66; for 3D-EEM Peak B Intensity F: HSA alone 996.906
Protocol: The 3D-EEM spectra were recorded using specific scanning parameters at the scanning rate of 2400 nm·min^−1, an […] with 5 nm increments, and an emission of 280–550 nm with 2 nm increments. The concentrations of PFAS and HSA were set at 18 × 10^−6 mol·L^−1 and 1 × 10^−6 mol·L^−1, respectively.

[3] = target: T1, HSA; assay: Circular dichroism (CD) spectrum, secondary structure of HSA; conditions: HSA:PFAS 1:18, 298 K; for HSA secondary structure: β-Sheet: HSA alone 4.9; for HSA secondary structure: β-Turn: HSA alone 16.9; for HSA secondary structure: Random Coil: HSA alone 36.7; for HSA secondary structure: α-Helix: HSA alone 41.6
Description: CD measurements (190–260 nm) were taken before and after the addition of PFAS to HSA using a J-815 CD spectrometer equipped with a PMT detector (JASCO, Tokyo, Japan). The protein concentration was set at 1 × 10^−6 mol/L, with a fixed HSA-to-PFAS concentration ratio of 1:18. The scanning rate was set to 100 nm/min with 0.5 nm increments, and the photometric mode of HT. Each sample was scanned three times. The blank buffer control was automatically subtracted during the scanning process. All tests were carried out at 298 K. The CONTIN analysis method from the DichroWeb was employed to determine the contents of the protein’s secondary structure.

[4] = target: T2, Human Serum Albumin (HSA) (Homo sapiens, UniProt P02768); assay: Fluorescence quenching of HSA by PFAS (Stern–Volmer, double logarithmic and Van't Hoff analysis); type: binding; conditions: for quenching of HSA fluorescence intensity: PFAS 1.8 × 10^−5 mol·L^−1, HSA 1 × 10^−6 mol·L^−1, 298 K; for ΔH / ΔS: Van't Hoff, 298–310 K; for affinity for HSA: fluorescence quenching experiments; for main interaction force from thermodynamic analysis: signs of ΔH and ΔS
T2 construct: HSA (≥96%) and six PFAS were all purchased from Aladdin Chemicals (Shanghai, China); purchased Aladdin Chemicals (Shanghai, China)
T2 sequence (P02768 25-609): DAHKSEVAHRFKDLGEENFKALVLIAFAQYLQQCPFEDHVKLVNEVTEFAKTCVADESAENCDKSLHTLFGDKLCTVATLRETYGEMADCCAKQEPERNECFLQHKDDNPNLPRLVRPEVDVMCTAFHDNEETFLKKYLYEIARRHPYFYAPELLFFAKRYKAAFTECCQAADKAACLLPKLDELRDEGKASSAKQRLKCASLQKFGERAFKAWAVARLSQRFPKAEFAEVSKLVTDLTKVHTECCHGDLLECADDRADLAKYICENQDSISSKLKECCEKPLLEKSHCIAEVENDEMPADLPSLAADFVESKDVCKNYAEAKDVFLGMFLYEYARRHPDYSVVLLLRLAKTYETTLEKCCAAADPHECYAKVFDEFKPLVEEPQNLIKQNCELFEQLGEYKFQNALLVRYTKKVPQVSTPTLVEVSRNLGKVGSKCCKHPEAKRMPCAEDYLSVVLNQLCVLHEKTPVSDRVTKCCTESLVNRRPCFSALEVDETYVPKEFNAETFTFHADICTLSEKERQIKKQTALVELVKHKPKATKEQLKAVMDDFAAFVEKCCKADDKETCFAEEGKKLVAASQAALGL
Protocol: Fluorescence quenching experiments greatly benefit studies on the interactions between ligands and proteins. Initially, 3 mL of HSA stock solution was put into a 10 mm square quartz cuvette. Following that, PFAS stock solution was gradually added to achieve various final concentrations, namely 0, 3, 6, 9, 12, 15, 18 × 10^−6 mol·L^−1. By incrementally increasing the molar ratio of PFAS vs. HSA up to 18, their binding characteristics can be better investigated.
A thermostat (TR-01A, Bishui Corp, Beijing, China) was used to precisely control the solution temperature, which was set at 298, 304, and 310 K. This device includes a temperature controller and a metal heating cuvette module in conjunction with a fluorometer. This thermostat has a temperature range of 20–60 °C (293–333 K) and an accuracy of 0.1 °C Celsius. This step is critical for keeping the experimental conditions stable. Following that, the samples were fluorescence-scanned with a fluorometer (Cary Eclipse, Agilent, CA, USA). The excitation wavelength was set at 275 nm to efficiently stimulate tryptophan (Trp) and tyrosine (Tyr) residues. Additional test parameters include an emission of 275–500 nm, scanning rate of 1200 nm/min and PTV voltage of 700 v. Fluorescence quenching experiments were repeated three times, and the average values were taken for further calculation.
Fluorescence internal filtration (IFE) refers to the phenomenon where the fluorescence intensity decreases during fluorescence measurement due to the absorption of excitation or emission light by sample components (small molecules or proteins) in solution [19, 20]. This phenomenon is more obvious in the samples with a high concentration of adsorbent. A fluorescence correction formula was used in this study to correct the IFE effect on the data, as follows: Fcorr=Fobs×10^Aex+Aem/2 where Fcorr and Fobs are corrected and observed fluorescence emission intensities, respectively, Aex and Aem are UV-vis absorbances at the excitation and emission wavelengths.
The quenching constant can be calculated using the Stern–Volmer Equation (3). The results are shown in Table 2 and Figure 1: F0/F=1+Kqτ0=1+KsvQ where F0 and F refer to HSA fluorescence intensities without and with the quencher (PFAS solution); Kq is the biomacromolecule’s quenching rate constant; τ0 is the average fluorescence lifetime of the fluorescent molecule when the quencher PFAS is absent, usually taken as 10^−8 s; [Q] is the PFAS concentration; Ksv is the Stern–Volmer quenching constant; F0/F is the vertical axis; the Stern–Volmer curves of this system are 298, 304, and 310 K.
The double logarithmic formula can be used to calculate the binding constants and binding site numbers of HSA–PFAS complexes: logF0−F/F=logKb+nlogQ where F0 and F are parameters representing the initial fluorescence intensity and the fluorescence intensity after adding PFAS, respectively. The binding characteristics are represented by the binding constant, Kb, and the number of binding sites, n. The slope of the straight line is the number of binding sites, n, and the binding constant Kb is obtained from the exponent of the straight line’s intercept using the double logarithmic graph. Figure A2 and Table 2 show the calculation results.
The enthalpy change (∆H), entropy change (∆S), and free energy change (∆G) calculated from the Van’t Hoff equation [50] can be used to determine the type of interaction. lnKb=−ΔH/RT+ΔS/R ΔG=ΔH−TΔS=−RTlnKb where R represents the ideal gas constant (8.314 J·mol^−1·K^−1).

T1 sequence (P02768 25-609): as above

O=C(O)C(F)(F)C(F)(F)C(F)(F)C(F)(F)C(F)(F)C(F)(F)C(=O)O [DFSA, Dodecafluorosuberic Acid]
φ (rate of decrease in Kb) ([1]; ibuprofen probe): 25.4% | φ (rate of decrease in Kb) ([1]; lidocaine probe): 31.7% | φ (rate of decrease in Kb) ([1]; warfarin probe): 93.3% | 3D-EEM Peak A Position λex/λem [2]: 280/336 | 3D-EEM Peak B Position λex/λem [2]: 230/330 | 3D-EEM Peak A Intensity F [2]: 629.75 a.u. | 3D-EEM Peak B Intensity F [2]: 839.38 a.u. | HSA secondary structure: β-Sheet [3]: 4.0% | HSA secondary structure: β-Turn [3]: 15.8% | HSA secondary structure: Random Coil [3]: 37.0% | HSA secondary structure: α-Helix [3]: 43.2% | fluorescence quenching mechanism [4]: static quenching | quenching of HSA fluorescence intensity [4]: 9.7% | KSV (Stern–Volmer quenching constant) ([4]; T = 298 K): 0.58 ± 0.06 × 10^4 L·mol^−1 | n (number of binding sites) ([4]; T = 298 K): 0.88 ± 0.02 | ΔG ([4]; T = 298 K): -4.338 kcal/mol | Kq (quenching rate constant) ([4]; T = 298 K, τ0 taken as 10^−8 s): 0.58 ± 0.06 × 10^12 L·mol^−1·s^−1 | KSV (Stern–Volmer quenching constant) ([4]; T = 304 K): 0.51 ± 0.04 × 10^4 L·mol^−1 | n (number of binding sites) ([4]; T = 304 K): 0.98 ± 0.05 | ΔG ([4]; T = 304 K): -5.136 kcal/mol | Kq (quenching rate constant) ([4]; T = 304 K, τ0 taken as 10^−8 s): 0.51 ± 0.04 × 10^12 L·mol^−1·s^−1 | KSV (Stern–Volmer quenching constant) ([4]; T = 310 K): 0.45 ± 0.05 × 10^4 L·mol^−1 | n (number of binding sites) ([4]; T = 310 K): 1.13 ± 0.07 | ΔG ([4]; T = 310 K): -6.123 kcal/mol | Kq (quenching rate constant) ([4]; T = 310 K, τ0 taken as 10^−8 s): 0.45 ± 0.05 × 10^12 L·mol^−1·s^−1 | ΔH [4]: 40.031 ± 1.02 kcal/mol | ΔS [4]: 622.5 ± 15.3 J·mol^−1·K^−1 | affinity for HSA [4]: low affinity | main interaction force from thermodynamic analysis [4]: hydrophobic interactions

O=C(O)C(F)(OC(F)(F)C(F)(OC(F)(F)C(F)(F)C(F)(F)F)C(F)(F)F)C(F)(F)F (centres unmarked) [HFPO-TA, Perfluoro-2,5-dimethyl-3,6-dioxanonanoic Acid]
φ (rate of decrease in Kb) ([1]; ibuprofen probe): 23.8% | φ (rate of decrease in Kb) ([1]; lidocaine probe): 35.3% | φ (rate of decrease in Kb) ([1]; warfarin probe): 99.6% | 3D-EEM Peak A Position λex/λem [2]: 280/321 | 3D-EEM Peak B Position λex/λem [2]: 230/314 | 3D-EEM Peak A Intensity F [2]: 499.16 a.u. | 3D-EEM Peak B Intensity F [2]: 861.38 a.u. | HSA secondary structure: β-Sheet [3]: 5.1% | HSA secondary structure: β-Turn [3]: 15.8% | HSA secondary structure: Random Coil [3]: 38.5% | HSA secondary structure: α-Helix [3]: 40.6% | fluorescence quenching mechanism [4]: mixed quenching | Kq (quenching rate constant) ([4]; 298 K): 1.78e+12 L/mol/s | quenching of HSA fluorescence intensity [4]: 25.1% | KSV (Stern–Volmer quenching constant) ([4]; T = 298 K): 1.78 ± 0.09 × 10^4 L·mol^−1 | n (number of binding sites) ([4]; T = 298 K): 1.49 ± 0.03 | ΔG ([4]; T = 298 K): -8.956 kcal/mol | Kq (quenching rate constant) ([4]; T = 298 K, τ0 taken as 10^−8 s): 1.78 ± 0.09 × 10^12 L·mol^−1·s^−1 | KSV (Stern–Volmer quenching constant) ([4]; T = 304 K): 1.95 ± 0.13 × 10^4 L·mol^−1 | n (number of binding sites) ([4]; T = 304 K): 1.78 ± 0.07 | ΔG ([4]; T = 304 K): -11.03 kcal/mol | Kq (quenching rate constant) ([4]; T = 304 K, τ0 taken as 10^−8 s): 1.95 ± 0.13 × 10^12 L·mol^−1·s^−1 | KSV (Stern–Volmer quenching constant) ([4]; T = 310 K): 1.98 ± 0.08 × 10^4 L·mol^−1 | n (number of binding sites) ([4]; T = 310 K): 2.09 and 2.09 ± 0.08 | ΔG ([4]; T = 310 K): -13.28 kcal/mol | Kq (quenching rate constant) ([4]; T = 310 K, τ0 taken as 10^−8 s): 1.98 ± 0.08 × 10^12 L·mol^−1·s^−1 | ΔH [4]: 98.506 ± 2.02 kcal/mol | ΔS [4]: 1508.3 ± 30.8 J·mol^−1·K^−1 | HSA fluorescence peak position after PFAS addition (blue shift from 337 nm) ([4]; as the concentration of PFAS increases): 315 nm | affinity for HSA [4]: high affinity | main interaction force from thermodynamic analysis [4]: hydrophobic interactions

O=C(O)C(F)(F)C(F)(F)C(F)(F)C(F)(F)C(F)(F)C(F)(F)F [PFHpA, Perfluoroheptanoic Acid]
φ (rate of decrease in Kb) ([1]; ibuprofen probe): 42.7% | φ (rate of decrease in Kb) ([1]; lidocaine probe): 48.8% | φ (rate of decrease in Kb) ([1]; warfarin probe): 98.9% | 3D-EEM Peak A Position λex/λem [2]: 280/336 | 3D-EEM Peak B Position λex/λem [2]: 230/335 | 3D-EEM Peak A Intensity F [2]: 656.89 a.u. | 3D-EEM Peak B Intensity F [2]: 997.01 a.u. | HSA secondary structure: β-Sheet [3]: 5.5% | HSA secondary structure: β-Turn [3]: 15.5% | HSA secondary structure: Random Coil [3]: 39.4% | HSA secondary structure: α-Helix [3]: 39.6% | fluorescence quenching mechanism [4]: static quenching | quenching of HSA fluorescence intensity [4]: 12.1% | KSV (Stern–Volmer quenching constant) ([4]; T = 298 K): 0.69 ± 0.05 × 10^4 L·mol^−1 | n (number of binding sites) ([4]; T = 298 K): 0.96 ± 0.04 | ΔG ([4]; T = 298 K): -4.986 kcal/mol | Kq (quenching rate constant) ([4]; T = 298 K, τ0 taken as 10^−8 s): 0.69 ± 0.05 × 10^12 L·mol^−1·s^−1 | KSV (Stern–Volmer quenching constant) ([4]; T = 304 K): 0.53 ± 0.07 × 10^4 L·mol^−1 | n (number of binding sites) ([4]; T = 304 K): 1.42 ± 0.06 | ΔG ([4]; T = 304 K): -7.968 kcal/mol | Kq (quenching rate constant) ([4]; T = 304 K, τ0 taken as 10^−8 s): 0.53 ± 0.07 × 10^12 L·mol^−1·s^−1 | KSV (Stern–Volmer quenching constant) ([4]; T = 310 K): 0.32 ± 0.04 × 10^4 L·mol^−1 | n (number of binding sites) ([4]; T = 310 K): 1.50 ± 0.05 | ΔG ([4]; T = 310 K): -8.332 kcal/mol | Kq (quenching rate constant) ([4]; T = 310 K, τ0 taken as 10^−8 s): 0.32 ± 0.04 × 10^12 L·mol^−1·s^−1 | ΔH [4]: 77.672 ± 3.399 kcal/mol | ΔS [4]: 1166.7 ± 42.7 J·mol^−1·K^−1 | affinity for HSA [4]: low affinity | main interaction force from thermodynamic analysis [4]: hydrophobic interactions

— article PMC10819430, “Binding Affinity and Mechanism of Six PFAS with Human Serum Albumin: Insights from Multi-Spectroscopy, DFT and Molecular Dynamics Approaches” (Toxics, 2024)
